#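 Protocol summary: plate cells (96-well), add compound at 5 concentrations, incubate 48 h, interpolate endpoints linearly. At the TGI there is no net growth.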
# Tests used:
# Assay in all cases: inhibition of tumour cell growth, NCI panel, 48 h
# HOP-18 NSCLC = tested on: HOP-18 NSCLC
# MALME-3M melanoma = tested on: MALME-3M melanoma
# SF-268 CNS = tested on: SF-268 CNS
# NCI-H460 lung = tested on: NCI-H460 lung
# HL-60(TB) leukemia = tested on: HL-60(TB) leukemia
# HOP-62 NSCLC = tested on: HOP-62 NSCLC
# CAKI-1 renal = tested on: CAKI-1 renal
# OVCAR-3 ovarian = tested on: OVCAR-3 ovarian
# MDA-MB-435 = tested on: MDA-MB-435
# A549 NSCLC = tested on: A549 NSCLC
# CCRF-CEM leukemia = tested on: CCRF-CEM leukemia
# RPMI-8226 leukemia = tested on: RPMI-8226 leukemia
# HCC-2998 colon = tested on: HCC-2998 colon
# NCI-H522 lung = tested on: NCI-H522 lung
# MOLT-4 leukemia = tested on: MOLT-4 leukemia
# T-47D breast = tested on: T-47D breast
# SNB-75 CNS = tested on: SNB-75 CNS
# OVCAR-5 ovarian = tested on: OVCAR-5 ovarian
# SR leukemia = tested on: SR leukemia
# NCI-H226 lung = tested on: NCI-H226 lung
# ACHN renal = tested on: ACHN renal
# OVCAR-4 ovarian = tested on: OVCAR-4 ovarian
# SF-295 CNS = tested on: SF-295 CNS
# SW-620 colon = tested on: SW-620 colon
# UO-31 renal = tested on: UO-31 renal
# LOX IMVI melanoma = tested on: LOX IMVI melanoma
# SK-OV-3 ovarian = tested on: SK-OV-3 ovarian
# HT29 colon = tested on: HT29 colon
# HS 578T breast = tested on: HS 578T breast
# COLO 205 colon = tested on: COLO 205 colon
# IGROV1 ovarian = tested on: IGROV1 ovarian
# SK-MEL-28 melanoma = tested on: SK-MEL-28 melanoma
# A498 renal = tested on: A498 renal
# DMS 273 small cell lung = tested on: DMS 273 small cell lung
# K-562 leukemia = tested on: K-562 leukemia
# SF-539 CNS = tested on: SF-539 CNS
# M19-MEL melanoma = tested on: M19-MEL melanoma
# EKVX NSCLC = tested on: EKVX NSCLC
# KM12 colon = tested on: KM12 colon
# HCT-116 colon = tested on: HCT-116 colon
# M14 melanoma = tested on: M14 melanoma
# DLD-1 colon = tested on: DLD-1 colon
# LXFL 529 NSCLC = tested on: LXFL 529 NSCLC
# UACC-257 melanoma = tested on: UACC-257 melanoma
# HOP-92 NSCLC = tested on: HOP-92 NSCLC
# 786-0 renal = tested on: 786-0 renal
# RXF 393 renal = tested on: RXF 393 renal
# HCT-15 colon = tested on: HCT-15 colon
# DU-145 prostate = tested on: DU-145 prostate
# MDA-N = tested on: MDA-N
# SK-MEL-2 melanoma = tested on: SK-MEL-2 melanoma
# DMS 114 small cell lung = tested on: DMS 114 small cell lung
# MDA-MB-231 breast = tested on: MDA-MB-231 breast
# TK-10 renal = tested on: TK-10 renal
# SNB-78 CNS = tested on: SNB-78 CNS
# PC-3 prostate = tested on: PC-3 prostate
# KM20L2 colon = tested on: KM20L2 colon
# OVCAR-8 ovarian = tested on: OVCAR-8 ovarian
# NCI-H23 lung = tested on: NCI-H23 lung
# NCI/ADR-RES ovarian = tested on: NCI/ADR-RES ovarian
# SNB-19 CNS = tested on: SNB-19 CNS
# UACC-62 melanoma = tested on: UACC-62 melanoma
# SK-MEL-5 melanoma = tested on: SK-MEL-5 melanoma
# SN12C renal = tested on: SN12C renal
# U251 CNS = tested on: U251 CNS
compound,measurement,setting,value
CC1=CC2=C(OCO1)C(=O)c1ccccc1C2=O,TGI,HOP-18 NSCLC,27.1 µM
same,TGI,MALME-3M melanoma,6.48 µM
same,TGI,SF-268 CNS,26.1 µM
same,TGI,NCI-H460 lung,19.1 µM
same,TGI,HL-60(TB) leukemia,23.1 µM
same,TGI,HOP-62 NSCLC,15.1 µM
same,TGI,CAKI-1 renal,> 94 µM
same,TGI,OVCAR-3 ovarian,13.3 µM
same,TGI,MDA-MB-435,2.77 µM
same,TGI,A549 NSCLC,38.9 µM
same,TGI,CCRF-CEM leukemia,45.7 µM
same,TGI,RPMI-8226 leukemia,> 100 µM
same,TGI,HCC-2998 colon,> 100 µM
same,TGI,NCI-H522 lung,8.87 µM
same,TGI,MOLT-4 leukemia,25.3 µM
same,TGI,T-47D breast,7.47 µM
same,TGI,SNB-75 CNS,9.1 µM
same,TGI,OVCAR-5 ovarian,10.8 µM
same,TGI,SR leukemia,41.7 µM
same,TGI,NCI-H226 lung,30.2 µM
same,TGI,ACHN renal,18.6 µM
same,TGI,OVCAR-4 ovarian,8.5 µM
same,TGI,SF-295 CNS,8.61 µM
same,TGI,SW-620 colon,21.6 µM
same,TGI,UO-31 renal,28.7 µM
same,TGI,LOX IMVI melanoma,8.38 µM
same,TGI,SK-OV-3 ovarian,48.9 µM
same,TGI,HT29 colon,16.8 µM
same,TGI,HS 578T breast,4.25 µM
same,TGI,COLO 205 colon,11.5 µM
same,TGI,IGROV1 ovarian,27.6 µM
same,TGI,SK-MEL-28 melanoma,10.3 µM
same,TGI,A498 renal,29.5 µM
same,TGI,DMS 273 small cell lung,26.7 µM
same,TGI,K-562 leukemia,40.3 µM
same,TGI,SF-539 CNS,12.8 µM
same,TGI,M19-MEL melanoma,3.58 µM
same,TGI,EKVX NSCLC,> 100 µM
same,TGI,KM12 colon,21.9 µM
same,TGI,HCT-116 colon,19.6 µM
same,TGI,M14 melanoma,8.97 µM
same,TGI,DLD-1 colon,81.9 µM
same,TGI,LXFL 529 NSCLC,52.8 µM
same,TGI,UACC-257 melanoma,7.29 µM
same,TGI,HOP-92 NSCLC,23 µM
same,TGI,786-0 renal,> 56.9 µM
same,TGI,RXF 393 renal,12.5 µM
same,TGI,HCT-15 colon,51.6 µM
same,TGI,DU-145 prostate,3.67 µM
same,TGI,MDA-N,1.48 µM
same,TGI,SK-MEL-2 melanoma,2.23 µM
same,TGI,DMS 114 small cell lung,12.1 µM
same,TGI,MDA-MB-231 breast,22.4 µM
same,TGI,TK-10 renal,> 81.3 µM
same,TGI,SNB-78 CNS,> 100 µM
same,TGI,PC-3 prostate,> 100 µM
same,TGI,KM20L2 colon,46.6 µM
same,TGI,OVCAR-8 ovarian,32.3 µM
same,TGI,NCI-H23 lung,8.06 µM
same,TGI,NCI/ADR-RES ovarian,9.94 µM
same,TGI,SNB-19 CNS,34 µM
same,TGI,UACC-62 melanoma,9.89 µM
same,TGI,SK-MEL-5 melanoma,5.27 µM
same,TGI,SN12C renal,11.4 µM
same,TGI,U251 CNS,13.3 µM
COC(=O)C1=CC(O)CCC1c1ccc(OC)cc1 (configuration not stated),TGI,HOP-18 NSCLC,> 100 µM
same,TGI,MALME-3M melanoma,> 100 µM
same,TGI,SF-268 CNS,> 100 µM
same,TGI,NCI-H460 lung,> 100 µM
same,TGI,HL-60(TB) leukemia,> 100 µM
same,TGI,HOP-62 NSCLC,> 100 µM
same,TGI,CAKI-1 renal,> 100 µM
same,TGI,OVCAR-3 ovarian,> 100 µM
same,TGI,A549 NSCLC,> 100 µM
same,TGI,CCRF-CEM leukemia,> 100 µM
same,TGI,RPMI-8226 leukemia,> 100 µM
same,TGI,HCC-2998 colon,> 100 µM
same,TGI,NCI-H522 lung,> 100 µM
same,TGI,MOLT-4 leukemia,> 100 µM
same,TGI,SNB-75 CNS,> 100 µM
same,TGI,OVCAR-5 ovarian,> 100 µM
same,TGI,SR leukemia,> 100 µM
same,TGI,NCI-H226 lung,> 100 µM
same,TGI,ACHN renal,> 100 µM
same,TGI,OVCAR-4 ovarian,> 100 µM
same,TGI,SF-295 CNS,> 100 µM
same,TGI,SW-620 colon,> 100 µM
same,TGI,UO-31 renal,> 100 µM
same,TGI,LOX IMVI melanoma,> 100 µM
same,TGI,SK-OV-3 ovarian,> 100 µM
same,TGI,HT29 colon,> 100 µM
same,TGI,COLO 205 colon,> 100 µM
same,TGI,IGROV1 ovarian,> 100 µM
same,TGI,SK-MEL-28 melanoma,> 100 µM
same,TGI,A498 renal,> 100 µM
same,TGI,DMS 273 small cell lung,> 100 µM
same,TGI,K-562 leukemia,> 100 µM
same,TGI,SF-539 CNS,> 100 µM
same,TGI,M19-MEL melanoma,> 100 µM
same,TGI,EKVX NSCLC,> 100 µM
same,TGI,KM12 colon,> 100 µM
same,TGI,HCT-116 colon,> 100 µM
same,TGI,M14 melanoma,> 100 µM
same,TGI,DLD-1 colon,> 100 µM
same,TGI,LXFL 529 NSCLC,> 100 µM
same,TGI,UACC-257 melanoma,> 100 µM
same,TGI,HOP-92 NSCLC,> 100 µM
same,TGI,786-0 renal,> 100 µM
same,TGI,RXF 393 renal,> 100 µM
same,TGI,HCT-15 colon,> 100 µM
same,TGI,SK-MEL-2 melanoma,> 100 µM
same,TGI,DMS 114 small cell lung,> 100 µM
same,TGI,TK-10 renal,> 100 µM
same,TGI,SNB-78 CNS,> 100 µM
same,TGI,KM20L2 colon,> 100 µM
same,TGI,OVCAR-8 ovarian,> 100 µM
same,TGI,NCI-H23 lung,> 100 µM
same,TGI,SNB-19 CNS,> 100 µM
same,TGI,UACC-62 melanoma,> 100 µM
same,TGI,SK-MEL-5 melanoma,> 100 µM
same,TGI,SN12C renal,> 100 µM
same,TGI,U251 CNS,> 100 µM

# From PubChem BioAssay (NCI)
